From patent US12473264B2, “Inhibitors of erythrocyte band 3 tyrosine phosphorylation and uses thereof” (Purdue Research Foundation, priority 2019, dated 2025)
Read-outs that look alike come from different tables or passages of the source.

Key:
[1] = system: healthy donor human RBCs; test: Hemolysis (Hb release) induced by phosphatase inhibitors in healthy donor human RBCs; format: cell-based
Description: (§1) Cayman's hemoglobin colorimetric assay was used to quantitate the level of cell-free plasma hemoglobin in both patient plasma samples and in the above kinase-treated RBC supernatant samples according to the manufacturer's instruction.

[2] = molecular target: Syk (Homo sapiens, UniProt P43405); test: ADP-Glo kinase inhibition assay, Syk; format: biochemical
Protocol: Syk kinase inhibition assays were run on 96-well plates using the ADP-Glo assay kit according to manufacturer's specifications. All kinase reactions were run using Kinase Assay Buffer III supplemented with DTT and MnCl2 as required by the kinase of interest to generate kinase reaction buffer. Stock solutions of kinase inhibitor in DMSO were diluted into 2× kinase reaction buffer and the final concentration of DMSO in each kinase reaction was held below 1%. […] Kinase inhibitors were incubated with kinase and substrate prior to addition of ATP for 20 min at room temperature (RT). After addition of ATP to the wells, the plate was incubated at 37° C. for 30-60 minutes depending on the kinase used. After incubation the plate was cooled to RT for 5 minutes prior to addition of 25 μL ADP-Glo reagent and incubation on a shaker for 40 minutes. After 40 minutes, 50 μL Kinase Detection reagent were added and the plate was protected from light while incubated on a shaker. After 30 min, the luminescence was recorded using a Neo2 plate reader and 1 sec integration of the signal. The background signal was subtracted from all readings and the signal was normalized to the maximum signal obtained in the absence of inhibitor. Data were plotted and inhibition curves fit using Graphpad software.

[3] = system: SCD patient RBCs; test: RBC velocity through microfluidic capillary; format: cell-based, human; conditions: concentrations as low as 50 nM, various levels of oxygenation
Protocol: Microfluidic capillary devices were fabricated with polydimethylsiloxane (PDMS) using standard soft photolithography techniques. Capillaries were constructed with a straight channel (w=75 μm, h=6.52 μm) containing a constriction (wc=5 μm and h=6.52 μm). To control the oxygen level inside the channel, the microfluidic device was submerged in a customized glass chamber filled with sodium sulfite solution (0M, 0.01M, 0.1M or 1M) (Sigma-Aldrich). The oxygen level was calibrated using 25 μM of tris(2,2′-bipyridyl)dichlororuthenium(II) hexahydrate (an O2 indicator, Sigma-Aldrich) then converted into a PO2 value using the Stern-Volmer equation, I0/I=1+PO2×Kq, where I^0 is the maximum fluorescence intensity and Kq is the quenching constant. The calibration results are obtained.
Sickle cell blood samples were obtained from five patients (n=5, age 4-9 years old) and RBCs were isolated by centrifugation. […] For quantitation of RBC velocity in a microfluidic capillary, the RBC suspension was injected into the capillary at a constant pressure of 1.6 psi, and the velocity of the RBCs in the constriction was recorded using a high-speed video camera (Phantom Miro M120, 1900 frames per second) mounted on an inverted microscope (Leica DMI 6000B). Data were analyzed using Phantom Camera Control software.

[4] = system: SCD patient RBCs; test: Erythrocyte-derived microparticle release in SCD patient samples; format: cell-based, human; conditions: SCD patient samples incubated with 1 μM S701 (untreated SCD 18, healthy seven)
Protocol: Plasma from sickle cell samples (see above) was centrifuged 2× at 2500 rcf for 15 minutes to remove platelets and 100 μL of supernatant containing MPs was incubated for 20 minutes on ice with 0.5 μL of BV421 mouse-anti-human 235a antibody (anti-glycophorin A; BD Biosciences #562938). Samples were diluted with 1000 μL of stain buffer (BD Biosciences #554656), transferred to BD Trucount™ tubes (BD Biosciences #340334) and analyzed on an Attune NxT Flow Cytometer by utilizing violet fluorescent trigger channel. The absolute number of RBC-derived microparticles was then calculated using the following formula,
(§2) For evaluation of the effect of tyrosine kinase inhibitors on release of RBC-derived MPs from sickle cells suspended at 30% Hct in PBS-G, 500 μL washed RBCs were treated for 1 hour with the desired concentration of tyrosine kinase inhibitor or vehicle control, and then shaken at 1400 RPM for 4 h. Newly released microparticles were then separated from residual RBCs by centrifuging at 800 rcf for 10 minutes, collecting the supernatant, and analyzing the supernatant for RBC-derived MPs as described above.

[5] = molecular target: EGFR (Homo sapiens, UniProt P00533); test: ADP-Glo kinase assay, EGFR; format: biochemical
Chain of EGFR (P00533 25-1210): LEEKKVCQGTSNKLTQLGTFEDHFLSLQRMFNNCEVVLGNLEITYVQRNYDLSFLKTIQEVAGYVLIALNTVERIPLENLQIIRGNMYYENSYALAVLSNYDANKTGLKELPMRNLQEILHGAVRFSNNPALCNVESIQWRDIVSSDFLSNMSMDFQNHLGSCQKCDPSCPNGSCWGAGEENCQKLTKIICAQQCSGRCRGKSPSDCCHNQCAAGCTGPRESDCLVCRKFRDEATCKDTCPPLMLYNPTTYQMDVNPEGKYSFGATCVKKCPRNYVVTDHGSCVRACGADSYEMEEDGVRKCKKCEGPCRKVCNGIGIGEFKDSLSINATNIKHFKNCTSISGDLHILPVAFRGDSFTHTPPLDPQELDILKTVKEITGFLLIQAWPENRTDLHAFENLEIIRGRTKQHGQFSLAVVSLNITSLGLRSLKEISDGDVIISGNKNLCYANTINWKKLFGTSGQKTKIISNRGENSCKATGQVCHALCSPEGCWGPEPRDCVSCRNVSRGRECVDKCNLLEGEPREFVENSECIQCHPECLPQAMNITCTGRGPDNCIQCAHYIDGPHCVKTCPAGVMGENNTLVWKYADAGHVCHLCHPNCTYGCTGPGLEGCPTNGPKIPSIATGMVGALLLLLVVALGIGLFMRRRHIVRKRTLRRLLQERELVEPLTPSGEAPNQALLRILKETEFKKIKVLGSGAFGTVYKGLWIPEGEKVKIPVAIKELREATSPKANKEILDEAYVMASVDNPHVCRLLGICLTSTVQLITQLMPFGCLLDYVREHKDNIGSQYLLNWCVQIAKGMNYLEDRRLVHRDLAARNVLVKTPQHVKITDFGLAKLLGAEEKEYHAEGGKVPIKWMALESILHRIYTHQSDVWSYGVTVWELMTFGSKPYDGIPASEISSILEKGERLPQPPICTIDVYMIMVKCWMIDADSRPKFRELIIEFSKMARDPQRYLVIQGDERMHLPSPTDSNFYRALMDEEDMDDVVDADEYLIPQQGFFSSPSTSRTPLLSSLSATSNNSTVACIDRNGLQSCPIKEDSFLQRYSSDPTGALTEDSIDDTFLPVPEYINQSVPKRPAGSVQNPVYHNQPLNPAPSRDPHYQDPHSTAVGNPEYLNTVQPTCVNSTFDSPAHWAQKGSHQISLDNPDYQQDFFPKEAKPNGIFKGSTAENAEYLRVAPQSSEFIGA
Protocol: (§3) Syk kinase inhibition assays were run on 96-well plates using the ADP-Glo assay kit according to manufacturer's specifications. All kinase reactions were run using Kinase Assay Buffer III supplemented with DTT and MnCl2 as required by the kinase of interest to generate kinase reaction buffer. Stock solutions of kinase inhibitor in DMSO were diluted into 2× kinase reaction buffer and the final concentration of DMSO in each kinase reaction was held below 1%. The total volume of each kinase reaction was 25 μL apportioned as: 5 μL 2× kinase reaction buffer or diluted kinase inhibitor, 5 μL 1 mg/mL (stock) kinase substrate, 10 μL kinase in kinase reaction buffer, and 5 μL 250 μM ATP diluted into kinase reaction buffer. Kinase inhibitors were incubated with kinase and substrate prior to addition of ATP for 20 min at room temperature (RT). After addition of ATP to the wells, the plate was incubated at 37° C. for 30-60 minutes depending on the kinase used. After incubation the plate was cooled to RT for 5 minutes prior to addition of 25 μL ADP-Glo reagent and incubation on a shaker for 40 minutes. […] After 30 min, the luminescence was recorded using a Neo2 plate reader and 1 sec integration of the signal. The background signal was subtracted from all readings and the signal was normalized to the maximum signal obtained in the absence of inhibitor. […]

[6] = system: SCD patient RBCs; test: Free plasma hemoglobin in SCD patient samples; format: cell-based, human; conditions: 1 μM S701, SCD patient samples
Protocol: as §2, §1

[7] = system: Syk phosphorylation of Band 3; test: Band 3 tyrosine phosphorylation induced in healthy donor RBCs by OV (Western blot); format: cell-based; conditions: Homo sapiens; healthy donor RBCs treated with OV; read-out: in vitro IC50 against Syk phosphorylation of Band 3
Protocol: (§4) RBC ghosts were then prepared by mixing 150 μL of packed RBCs with 1500 μL of ice-cold ghost buffer (5 mM Na2HPO4, 1 mM EDTA, pH 8.0, containing 1 mM phenylmethylsulfonyl fluoride (PMSF) and 1% phosphatase cocktail inhibitors 2 and 3) and allowed to sit on ice for 30 min. Samples were centrifuged at 13000 rpm for 15 min at 4° C. and supernatants were removed. Ghost pellets were washed an additional 3×, after which 10 μL was removed for determination of protein concentration using Pierce™ Rapid Gold BCA Protein Assay (Thermo Fisher Scientific, A53226). Residual ghosts were solubilized in 4× Laemmli buffer (Bio-Rad) at a concentration of 1 […] and warmed to 30° C. for 30 min prior to storage at −20° C. until use.
(§5) Band 3 tyrosine phosphorylation was quantitated by loading 30 μL of each thawed sample onto a 10% SDS-PAGE gel and separating at 90, 120 and 150 V for 30, 45 and 20 minutes, respectively. Proteins were then transferred to a nitrocellulose membrane at 100 V for 2 hours, after which membranes were immunostained with anti-phosphotyrosine (1:1000, Cell Signaling, Inc.) or anti-actin (1:20000) antibodies dissolved in TBST (25 mM Tris, 140 mM NaCl, 3 mM KCl, 0.05% v/v Tween-20) containing 5% w/v milk. […] Band 3 tyrosine phosphorylation intensity/densitometry was quantitated using image J software.

[8] = system: phosphorylated Band 3; test: Band 3 tyrosine phosphorylation in SCD RBC lysates (Western blot); format: cell-based, human; conditions: 1 μM S701, SCD RBC lysates, anti-pY Western blot
Protocol: as §4, §5

[9] = molecular target: T1, ZAP70 (Homo sapiens, UniProt P43403); test: ADP-Glo kinase assay, ZAP70; format: biochemical; conditions: FIG. 6B
T1 sequence (P43403 1-619): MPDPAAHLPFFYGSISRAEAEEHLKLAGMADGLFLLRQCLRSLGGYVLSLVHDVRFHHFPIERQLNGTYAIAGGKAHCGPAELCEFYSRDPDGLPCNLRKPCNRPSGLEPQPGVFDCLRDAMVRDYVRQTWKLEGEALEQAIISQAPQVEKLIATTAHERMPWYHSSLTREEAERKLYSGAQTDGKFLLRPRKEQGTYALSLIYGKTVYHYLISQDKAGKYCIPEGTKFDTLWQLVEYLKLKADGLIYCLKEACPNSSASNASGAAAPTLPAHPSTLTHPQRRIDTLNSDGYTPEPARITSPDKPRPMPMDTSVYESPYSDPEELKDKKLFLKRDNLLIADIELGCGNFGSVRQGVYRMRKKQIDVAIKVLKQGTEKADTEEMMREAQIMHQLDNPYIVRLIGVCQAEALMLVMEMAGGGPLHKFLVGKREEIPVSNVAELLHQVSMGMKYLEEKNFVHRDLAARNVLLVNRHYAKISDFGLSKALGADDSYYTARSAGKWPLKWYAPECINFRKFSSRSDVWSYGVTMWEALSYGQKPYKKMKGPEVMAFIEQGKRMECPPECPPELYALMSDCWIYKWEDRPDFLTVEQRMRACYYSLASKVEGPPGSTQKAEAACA
Protocol: as §3

[10] = molecular target: Lyn A (Homo sapiens, UniProt P07948); test: ADP-Glo kinase assay, Lyn A; format: biochemical; conditions: FIG. 6B
Chain of Lyn A (P07948 whole entry): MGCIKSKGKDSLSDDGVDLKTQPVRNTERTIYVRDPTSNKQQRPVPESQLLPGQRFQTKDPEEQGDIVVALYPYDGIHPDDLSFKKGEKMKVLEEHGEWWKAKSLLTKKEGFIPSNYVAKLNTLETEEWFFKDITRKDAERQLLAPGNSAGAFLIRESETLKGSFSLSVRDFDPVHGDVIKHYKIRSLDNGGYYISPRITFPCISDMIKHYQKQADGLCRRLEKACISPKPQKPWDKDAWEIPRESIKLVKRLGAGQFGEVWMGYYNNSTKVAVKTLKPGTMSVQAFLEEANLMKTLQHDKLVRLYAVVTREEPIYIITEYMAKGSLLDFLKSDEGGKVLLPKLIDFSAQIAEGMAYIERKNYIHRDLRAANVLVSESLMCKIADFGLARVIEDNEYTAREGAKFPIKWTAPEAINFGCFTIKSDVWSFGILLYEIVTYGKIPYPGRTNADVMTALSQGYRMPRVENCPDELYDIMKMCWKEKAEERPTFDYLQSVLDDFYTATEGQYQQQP
Protocol: as §3

[11] = molecular target: SRC (Homo sapiens, UniProt P12931); test: ADP-Glo kinase assay, SRC; format: biochemical; conditions: FIG. 6B
Chain of SRC (P12931 whole entry): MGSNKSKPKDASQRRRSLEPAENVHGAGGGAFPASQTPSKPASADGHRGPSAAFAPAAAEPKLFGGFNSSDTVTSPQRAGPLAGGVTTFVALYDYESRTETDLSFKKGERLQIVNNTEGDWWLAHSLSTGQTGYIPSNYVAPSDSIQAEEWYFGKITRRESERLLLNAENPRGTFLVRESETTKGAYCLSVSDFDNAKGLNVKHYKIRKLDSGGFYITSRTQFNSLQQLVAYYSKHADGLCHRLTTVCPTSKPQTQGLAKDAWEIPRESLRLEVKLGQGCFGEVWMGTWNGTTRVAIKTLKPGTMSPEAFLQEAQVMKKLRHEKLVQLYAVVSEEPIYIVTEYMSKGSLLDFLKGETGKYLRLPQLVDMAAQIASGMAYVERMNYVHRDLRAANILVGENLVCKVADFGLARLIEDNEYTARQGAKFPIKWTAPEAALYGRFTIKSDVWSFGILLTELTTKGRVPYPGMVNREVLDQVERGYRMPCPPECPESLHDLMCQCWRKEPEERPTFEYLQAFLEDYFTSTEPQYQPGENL
Protocol: as §3

| SMILES | percent inhibition of hemolysis at 5 µM ([1]; 5 μM S701, Diamide, read-out: inhibition of hemolysis, Diamide) [%] | percent inhibition of hemolysis at 5 µM ([1]; 5 μM S701, Phenylhydrazine, read-out: inhibition of hemolysis, Phenylhydrazine) [%] | percent inhibition of hemolysis at 5 µM ([1]; 5 μM S701, phosphatase inhibitor OV, read-out: inhibition of hemolysis, OV) [%] | IC50 ([2]; cell-free) [µM] | RBC velocity through a 5 μm tube [3] | number of MPs released per μL of plasma [4] | inhibitory effect on EGFR [5] | decrease of concentration of free plasma hemoglobin [6] [%] | IC50 [7] [µM] | phosphorylated Band 3 [8] | inhibitory effect on ZAP 70 [9] | Syk inhibition compared to S701 ([2]; FIG. 6B) | inhibitory effect on Lyn A [10] | inhibitory effect on SRC [11] |
| --- | --- | --- | --- | --- | --- | --- | --- | --- | --- | --- | --- | --- | --- | --- |
| COc1cc(Nc2ncc(F)c(NC(=O)c3cc(O)c(O)c(O)c3)n2)cc(OC)c1OC [S701, N-(5-fluoro-2-((3,4,5-trimethoxyphenyl)amino)pyrimidin-4-yl)-3,4,5-trihydroxybenzamide] | 50 | 44 | 25 | 0.581 | increased RBC velocity | five | has to be in really high concentrations to have any inhibitory effect | 47 | ~5 | notable decrease in phosphorylated Band 3 |  |  |  |  |
| COc1ccc(Nc2nc(Nc3cccc4[nH]ccc34)ncc2F)c(-c2ccc(O)c(O)c2)c1 [S602, 2′-((2-((1H-indol-4-yl)amino)-5-fluoropyrimidin-4-yl)amino)-5′-methoxy-[1,1′-biphenyl]-3,4-diol] |  |  |  |  |  |  | very significantly higher concentrations to have an impact |  |  |  | very significantly higher concentrations to have an impact | even better IC50 value for inhibiting Syk as compared to S701 | very significantly higher concentrations to have an impact | very significantly higher concentrations to have an impact |
